# Assay results taken from PubChem BioAssay AID1963828 (Molecular Pharmacology Branch, DTP, NCI, 2024).
# System: 991263-137-R1-J2-PDC complex spheroid viability
# Assay: Anticancer human tumor 991263-137-R1-J2-PDC patient-derived colon adenocarcinoma cell line growth inhibition [POLQ]
# Conditions: for IC50: curve of first compound; for viability, T/C: stronger effect = lower value
# Method: Multicellular complex tumor spheroid response to Polymerase (POL) inhibitors (novobiocin, ART-558, RP6685) in combination with a variety of drugs and investigational agents in selected tumor cell lines
# The POL inhibitors (novobiocin, ART-558, and RP6685) were evaluated both individually and in combination with standard of care and investigational anticancer small molecules within a complex spheroid model of solid tumors. . Complex spheroids include a stromal component modeled by human endothelial cells (HUVEC) and fibroblasts modeled by human mesenchymal stem cells (MSCs). The concentration ranges selected for each drug and investigational agent were based upon clinically achievable concentrations if the clinical Cmax of the agent was known.
# Compounds. The drugs and investigational agents: novobiocin (NSC847541), ART-558 (NSC835418), RP-6685 (NSC848927), peposertib (NSC802822), ceralasertib (NSC780249), elimusertib (NSC800525), camonsertib (NSC841442), AZD-1390 (NSC803789), olaparib (NSC753686), talazoparib (NSC767125), rucaparib (NSC756644), sotorasib (NSC818433), MRTX-1133 (NSC836407), SN-38 (NSC673596), topotecan (NSC609699), epotoside (NSC141540), doxorubicin (NSC123127), gemcitabine (NSC613327), 5-fluorouracil (NSC19893), paclitaxel (NSC125973), vemurafenib (NSC761431), MSA-2 (NSC828583), SN-011 (NSC837082), adavosertib (NSC754352), prexasertib (NSC758257), carboplatin (NSC241240) and oxaliplatin (NSC266046), were obtained from the National Cancer Institute (NCI) Developmental Therapeutics Program Chemical Repository (21). The FDA-approved anticancer drug set is available from the Developmental Therapeutics Program at https://dtp.cancer.gov/organization/dscb/obtaining/. […] The stock solutions were prepared in dimethyl sulfoxide (DMSO, Sigma-Aldrich, St. Louis, MO, cat. D2650), except for the platinum compounds which were prepared in saline (Quality Biological, Gaithersburg, MD, cat. 114-055-101), at 800-fold the tested concentration and stored at -70 degrees C prior to their use. All drugs and investigational agents were tested over a range starting from a high concentration at or near the clinical Cmax and decreasing in half-log increments. If the clinical Cmax for an agent had not been determined, the highest concentration tested was 10 microM, except for SN-38, which was tested at a high concentration of 1 microM.
# Cell Culture. All cells were maintained in an incubator at 37 degrees C and 5% CO2 with 95% humidity. The PDC lines were cultured according to standard operating procedures established by the NCI PDMR (https://pdmr.cancer.gov). Table 3 of the manuscript, lists the cell lines along with the number of the three cell types plated to form the mct-spheroids and media for tumor cell growth. After thawing, all PDC lines, except 997537-175-T-J1-PDC and 415267-285-R-J2-PDC, were cultured in Matrigel-coated flasks prepared with a working solution of 1X Ham's F-12 nutrient mix, without supplementation (Thermo Fisher Scientific, cat. 11765054), 100 U/mL penicillin-streptomycin (Thermo Fisher Scientific, cat. 15140122), and 2.5% Matrigel (Corning Inc., Corning, NY, cat. 354248) for the first three passages. The two PDC lines 997537-175-T-J1-PDC and 415267-285-R-J2-PDC were cultured on uncoated flasks. The 857933-349-R-J2-PDC line was cultured in 6C/Colon 1B media containing advanced DMEM/F-12 (Thermo Fisher Scientific, cat. 12634028), 10 mM HEPES (Thermo Fisher Scientific, cat. 15630080), 1X GlutaMAX supplement (Thermo Fisher Scientific, cat. 35050061), 0.1 mg/mL primocin (InvivoGen, San Diego, CA, cat. ant-pm-2), 10% defined fetal bovine serum, heat inactivated (HyClone Laboratories Inc., Logan, UT, cat. SH30070.03HI), 50% L-WRN conditioned media (ATCC, cat. CRL-3276), 1.25 mM N-Acetyl-L-cysteine (Sigma-Aldrich, cat. A9165), 10 mM nicotinamide (Sigma-Aldrich, cat. N0636), 1X B-27 supplement (Thermo Fisher Scientific, cat. 17504044), 1X N-2 supplement (Thermo Fisher Scientific, cat. […]
# [1] = second compound 0.0316 µM, first compound 0.0316 µM
# [2] = second compound 0.0316 µM, first compound 0.1 µM
# [3] = second compound 0.0316 µM, first compound 0.316 µM
# [4] = second compound 0.0316 µM, first compound 1 µM
# [5] = second compound 0.0316 µM, first compound 3.16 µM
# [6] = second compound 0.0316 µM, first compound 10 µM
# [7] = second compound 0.1 µM, first compound 0.0316 µM
# [8] = second compound 0.1 µM, first compound 0.1 µM
# [9] = second compound 0.1 µM, first compound 0.316 µM
# [10] = second compound 0.1 µM, first compound 1 µM
# [11] = second compound 0.1 µM, first compound 3.16 µM
# [12] = second compound 0.1 µM, first compound 10 µM
# [13] = second compound 0.316 µM, first compound 0.0316 µM
# [14] = second compound 0.316 µM, first compound 0.1 µM
# [15] = second compound 0.316 µM, first compound 0.316 µM
# [16] = second compound 0.316 µM, first compound 1 µM
# [17] = second compound 0.316 µM, first compound 3.16 µM
# [18] = second compound 0.316 µM, first compound 10 µM
# [19] = second compound 1 µM, first compound 0.0316 µM
# [20] = second compound 1 µM, first compound 0.1 µM
# [21] = second compound 1 µM, first compound 0.316 µM
# [22] = second compound 1 µM, first compound 1 µM
# [23] = second compound 1 µM, first compound 3.16 µM
# [24] = second compound 1 µM, first compound 10 µM
# [25] = second compound 3.16 µM, first compound 0.0316 µM
# [26] = second compound 3.16 µM, first compound 0.1 µM
# [27] = second compound 3.16 µM, first compound 0.316 µM
# [28] = second compound 3.16 µM, first compound 1 µM
# [29] = second compound 3.16 µM, first compound 3.16 µM
# [30] = second compound 3.16 µM, first compound 10 µM
# [31] = second compound 10 µM, first compound 0.0316 µM
# [32] = second compound 10 µM, first compound 0.1 µM
# [33] = second compound 10 µM, first compound 0.316 µM
# [34] = second compound 10 µM, first compound 1 µM
# [35] = second compound 10 µM, first compound 3.16 µM
# [36] = second compound 10 µM, first compound 10 µM
# 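Note: spheroids exposed to compounds for 7 days before readout.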
# 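Throughout, for viability, T/C: 100% = DMSO vehicle control viability.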
smiles,measurement,setting,value
CNCc1ccc(-c2[nH]c3cc(F)cc4c3c2CCNC4=O)cc1 + Nc1ccc(C#CCN(C(=O)Cc2ncc(C(F)(F)F)cc2C(F)(F)F)c2ccc(F)cc2)nn1,IC50,second compound 0.0316 µM,> 10 µM
same,IC50,second compound 0.1 µM,> 10 µM
same,IC50,second compound 0.316 µM,> 10 µM
same,IC50,second compound 1 µM,> 10 µM
same,IC50,second compound 3.16 µM,> 10 µM
same,IC50,second compound 10 µM,> 10 µM
same,"viability, T/C",[1],98.4%
same,"viability, T/C",[2],91.8%
same,"viability, T/C",[3],98.2%
same,"viability, T/C",[4],93.4%
same,"viability, T/C",[5],97.7%
same,"viability, T/C",[6],117%
same,"viability, T/C",[7],112%
same,"viability, T/C",[8],99.5%
same,"viability, T/C",[9],114%
same,"viability, T/C",[10],95.1%
same,"viability, T/C",[11],110%
same,"viability, T/C",[12],108%
same,"viability, T/C",[13],104%
same,"viability, T/C",[14],97.2%
same,"viability, T/C",[15],96.3%
same,"viability, T/C",[16],101%
same,"viability, T/C",[17],93.2%
same,"viability, T/C",[18],119%
same,"viability, T/C",[19],99.2%
same,"viability, T/C",[20],90.1%
same,"viability, T/C",[21],93%
same,"viability, T/C",[22],97%
same,"viability, T/C",[23],106%
same,"viability, T/C",[24],106%
same,"viability, T/C",[25],94.5%
same,"viability, T/C",[26],98%
same,"viability, T/C",[27],103%
same,"viability, T/C",[28],99.7%
same,"viability, T/C",[29],97.1%
same,"viability, T/C",[30],100%
same,"viability, T/C",[31],88.1%
same,"viability, T/C",[32],97.5%
same,"viability, T/C",[33],99.3%
same,"viability, T/C",[34],94.5%
same,"viability, T/C",[35],103%
same,"viability, T/C",[36],109%
Nc1ccn(C2OC(CO)C(O)C2(F)F)c(=O)n1 (stereo unspecified) + Nc1ccc(C#CCN(C(=O)Cc2ncc(C(F)(F)F)cc2C(F)(F)F)c2ccc(F)cc2)nn1,IC50,second compound 0.0316 µM,5.74 µM
same,IC50,second compound 0.1 µM,> 10 µM
same,IC50,second compound 0.316 µM,5.3 µM
same,IC50,second compound 1 µM,> 10 µM
same,IC50,second compound 3.16 µM,> 10 µM
same,IC50,second compound 10 µM,> 10 µM
same,"viability, T/C",[1],96.1%
same,"viability, T/C",[2],75.6%
same,"viability, T/C",[3],64.4%
same,"viability, T/C",[4],58.4%
same,"viability, T/C",[5],55.2%
same,"viability, T/C",[6],45.8%
same,"viability, T/C",[7],89.6%
same,"viability, T/C",[8],77.5%
same,"viability, T/C",[9],59.2%
same,"viability, T/C",[10],61.7%
same,"viability, T/C",[11],59.9%
same,"viability, T/C",[12],47.6%
same,"viability, T/C",[13],94.3%
same,"viability, T/C",[14],74.1%
same,"viability, T/C",[15],65.9%
same,"viability, T/C",[16],64.2%
same,"viability, T/C",[17],57.3%
same,"viability, T/C",[18],43.1%
same,"viability, T/C",[19],92.6%
same,"viability, T/C",[20],68.3%
same,"viability, T/C",[21],69.5%
same,"viability, T/C",[22],59.8%
same,"viability, T/C",[23],55.8%
same,"viability, T/C",[24],50.2%
same,"viability, T/C",[25],104%
same,"viability, T/C",[26],82.1%
same,"viability, T/C",[27],69.4%
same,"viability, T/C",[28],62.5%
same,"viability, T/C",[29],63.4%
same,"viability, T/C",[30],51.2%
same,"viability, T/C",[31],104%
same,"viability, T/C",[32],89.6%
same,"viability, T/C",[33],71.1%
same,"viability, T/C",[34],69.5%
same,"viability, T/C",[35],64.3%
same,"viability, T/C",[36],60.7%
O=c1[nH]cc(F)c(=O)[nH]1 + Nc1ccc(C#CCN(C(=O)Cc2ncc(C(F)(F)F)cc2C(F)(F)F)c2ccc(F)cc2)nn1,IC50,second compound 0.0316 µM,> 10 µM
same,IC50,second compound 0.1 µM,> 10 µM
same,IC50,second compound 0.316 µM,> 10 µM
same,IC50,second compound 1 µM,> 10 µM
same,IC50,second compound 3.16 µM,> 10 µM
same,IC50,second compound 10 µM,> 10 µM
same,"viability, T/C",[1],118%
same,"viability, T/C",[2],112%
same,"viability, T/C",[3],96.5%
same,"viability, T/C",[4],97.1%
same,"viability, T/C",[5],89.4%
same,"viability, T/C",[6],89.3%
same,"viability, T/C",[7],113%
same,"viability, T/C",[8],115%
same,"viability, T/C",[9],96%
same,"viability, T/C",[10],101%
same,"viability, T/C",[11],87%
same,"viability, T/C",[12],80.9%
same,"viability, T/C",[13],94.5%
same,"viability, T/C",[14],104%
same,"viability, T/C",[15],101%
same,"viability, T/C",[16],93%
same,"viability, T/C",[17],85.6%
same,"viability, T/C",[18],86.1%
same,"viability, T/C",[19],117%
same,"viability, T/C",[20],114%
same,"viability, T/C",[21],111%
same,"viability, T/C",[22],90.2%
same,"viability, T/C",[23],92.4%
same,"viability, T/C",[24],86%
same,"viability, T/C",[25],116%
same,"viability, T/C",[26],106%
same,"viability, T/C",[27],86.9%
same,"viability, T/C",[28],89%
same,"viability, T/C",[29],92.2%
same,"viability, T/C",[30],78.4%
same,"viability, T/C",[31],126%
same,"viability, T/C",[32],101%
same,"viability, T/C",[33],92.6%
same,"viability, T/C",[34],85%
same,"viability, T/C",[35],83.4%
same,"viability, T/C",[36],84.9%
